According to a melting point compilation (Tetko et al.):

Row | melting point | SMILES
1 | 132 °C | CC(=O)N1CC(O)CC1C(=O)O (stereo not drawn)
2 | 222 °C | NS(=O)(=O)c1cc2c(cc1C(F)(F)F)NC(Cc1ccccc1)NS2(=O)=O (stereo not drawn)
3 | 90 to 91 °C | O=Cc1ccc(-c2nccs2)cc1
4 | 81 to 85 °C | COc1ccc([N+](=O)[O-])c2ccccc12
5 | 79 to 82 °C | COC(=O)c1ccc(C#Cc2ccccc2)o1
6 | 51 to 54 °C | CC(C)(C)OC(=O)NCc1ccc(Br)s1
7 | 153 °C | Cc1c(Br)cc([N+](=O)[O-])c(N)c1C
8 | 75 to 76 °C | Brc1ccc(N2CCCCC2)cc1
9 | 153 °C | O=[N+]([O-])/C(Br)=C/c1cccc(/C=C(\Br)[N+](=O)[O-])c1
10 | 6.5 °C | CC(=O)NCCS
11 | 185 °C | Nc1ccccc1-c1c(-c2ccccc2)noc1-c1ccccc1
12 | -67 °C | CC(CC(C)(C)C)CC(C)(C)C
13 | 130 to 131 °C | CC(C)(C)OC(=O)N1CCC(C(N)=S)CC1
14 | 156 °C | O=C1CCC(c2ccccc2)(C2CCN(Cc3ccccc3)CC2)C(=O)N1 (stereo not drawn)
15 | 60 °C | CCCCCCCCCCCCCCCCOc1ccc(N)cc1
16 | 98 °C | Nc1c(Br)cc(Br)c(Cl)c1Cl
17 | 22.9 °C | CCCCCCCCCCCCCCCCCCN(C)C
18 | 230 °C | C=C1C(=O)C23C4CC5C(C)(C)CCC(OC(C)=O)C5(C(=O)O4)C2C(OC(C)=O)CC1C3OC(C)=O (stereo not drawn)
19 | 153 °C | Cc1c(S(=O)(=O)Cl)sc2ccc(Cl)cc12
20 | 60 °C | CCC(CO)(CO)CO
21 | 14.2 °C | FC(F)(F)C(Cl)(Cl)Cl
22 | 300 °C | O=C1NC(=O)c2c(Cl)c(Cl)c(Cl)c(Cl)c21

Row | melting point | SMILES
23 | 124 to 126 °C | C/C=C/C1Nn2c(nnc2-c2ccccc2OC)S1 (stereo not drawn)
24 | 139 °C | COC(=O)C1CCC(C)(C(C)(C)O)OC1(C)C (stereo not drawn)
25 | -15 °C | OCC(F)(F)C(F)F
26 | 109 °C | CC12CCC(C(Br)(CBr)C1=O)C2(C)C (stereo not drawn)
27 | 218 °C | CNCC(O)c1ccc(O)c(O)c1 (stereo not drawn)
28 | 139 °C | CS(=O)(=O)c1ccccc1C(=O)O
29 | 181 °C | N#Cc1ccc(N)cc1C#N
30 | -45 °C | CCC(CC)COC(=O)CCCCCCCC(=O)OCC(CC)CC
31 | 127 to 132 °C | O=C(O)c1ccccc1CCc1ccccc1
32 | 51 to 52 °C | O=S(=O)(Cl)c1ccccc1I
33 | 34 to 38 °C | CCCCCCCCCC(=O)c1ccccc1
34 | 165 to 166 °C | Cc1nc[nH]c1C=O
35 | 125 to 126 °C | O=C(Cl)c1csc2ccc(Br)cc12
36 | 169 to 170 °C | COc1cc2c(cc1OC)C(c1cc(Cl)ccc1[N+](=O)[O-])=NCC2
37 | 46 to 47 °C | COC(=O)c1cccc2cc[nH]c12
38 | 224 to 226 °C | O=C(c1ccncc1)N1N=C(c2ccccc2)CC1c1cn(-c2ccccc2)nc1-c1ccccc1 (stereo not drawn)
39 | 127 to 131 °C | Cc1cc(C=O)c(O)c(C=O)c1
40 | 110 to 112 °C | Nc1noc2ccccc12
41 | 104 °C | CC(C)(C)OC(=O)N[C@H](CC(=O)O)Cc1ccccc1
42 | 41.5 °C | COc1cc(Br)cc(Br)c1
43 | 190 to 191 °C | NNc1ncnc2c1cnn2-c1ccccc1
44 | 168 °C | S=C(/N=N/c1ccccc1)NNc1ccccc1

Row | melting point | SMILES
45 | 272 to 274 °C | CCOC(=O)C12C(c3cc(Br)ccc3OP1(=O)OCC)C1(C(=O)OCC)C2c2cc(Br)ccc2OP1(=O)OCC (stereo not drawn)
46 | 112 °C | C[Si](C)(C)C#CC#C[Si](C)(C)C
47 | 75 to 76 °C | CON(/C=C1\C(=O)C2(C)CCC1C2(C)C)c1ccccc1 (stereo not drawn)
48 | 130 °C | COc1cc(O)c(C(=O)c2ccccc2)c(O)c1
49 | 207 °C | N#CC1=C(N)Oc2c(c(C(F)(F)F)nn2-c2ccccc2)C1c1c(Cl)cc(Cl)cc1Cl (stereo not drawn)
50 | 165 °C | CCOC(=O)c1c[nH]c(=O)nc1C(F)(F)F
51 | 165 °C | O=[N+]([O-])c1cc([N+](=O)[O-])c(C=Nc2ccccc2)cc1C=Nc1ccccc1
52 | 137 to 141 °C | O=C(O)[C@@H]1Cc2ccccc2CN1C(=O)OCc1ccccc1
53 | 259 to 260 °C | COc1cc(C=Nn2c(C)cc(C)c(C#N)c2=O)ccc1O
54 | 87 to 89 °C | Cn1ccnc1I
55 | 162 to 166 °C | CC(C)(C)OC(=O)N1CCC(c2nc(C(=O)O)cs2)CC1
56 | 177 to 178 °C | CC(=O)OC1C2=C(C(=O)C(O)C3(CC3C)C2=O)C2(C)CCC(C)=C(C)C2C1O (stereo not drawn)
57 | 2 to 3 °C | CCOC(=O)c1ccccc1O
58 | 64 °C | CCCCCCCCCCCCC#CC#CCCCCCCCCC(=O)O
59 | 70.8 °C | CC1=C[C@H](O)[C@H]2C[C@@H]1C2(C)C
60 | 160 °C | O=C1CCc2cc(OCCCCc3nnnn3C3CCCCC3)ccc2N1
61 | 88 °C | CC(=O)c1ccc2ccc3cccc4ccc1c2c34
62 | -6 °C | CN1CCNCC1
63 | 88 °C | CCNc1cc(O)ccc1C
64 | 192 °C | CC(=O)OC1CC2(C)C(CC(O)C3C4(C)CCC(O)C(C)C4CCC32C)C1=C(CCC=C(C)C)C(=O)O (stereo not drawn)
65 | 188 °C | CC(C)C1=C(O)C(=O)C2=C(CC(O)C3C(C)(C)CCCC23C)C1=O (stereo not drawn)
66 | 118 to 120 °C | CCCCCSc1ncccc1C(=O)O

Row | melting point | SMILES
67 | 194 to 196 °C | CC(=O)Oc1ccc2c(c1)c(OC(C)=O)c(-c1ccccc1)n2OC(C)=O
68 | 70 °C | COC(=O)c1cc2ccccc2s1
69 | 160 to 162 °C | NC(=S)Nc1cccc(Cl)c1Cl
70 | 68 °C | COC1=CC(c2ccccc2)c2ccccc21 (stereo not drawn)
71 | 183 °C | Nc1ccc(-c2ccc(N)cc2C(F)(F)F)c(C(F)(F)F)c1
72 | 24 °C | O=C(S)c1ccccc1
73 | 107 to 112 °C | O=C(CC(=O)c1cc(Cl)ccc1O)c1ccccc1
74 | 124 °C | CC(=O)Oc1ccc(OC(C)=O)c2ccccc12
75 | 66 to 69 °C | Cc1nccc(-c2cccc(Br)c2)n1
76 | 90 °C | N#Cc1ccc(S(=O)(=O)C(F)(F)F)cc1
77 | 98 to 99 °C | O=C(Cl)c1cccc2c1OCCO2
78 | -75 °C | CCCCNC
79 | 108 to 109 °C | O=C(CC(=O)C(F)(F)F)c1ccc2c(c1)OCO2
80 | 44 °C | Cc1ccc(N=c2sccn2C)c(C)c1
81 | 295 °C | CCCC1CC(C(=O)NC(C(C)O)C2OC(SC)C(O)C(O)C2O)N(C)C1 (stereo not drawn)
82 | 213 to 214 °C | O=C(O)c1ccc2sccc2c1
83 | 131 to 132 °C | CON=C(c1cc2ccccc2o1)c1cc2ccccc2o1
84 | 28 to 30 °C | NCc1cccc(-c2ccccc2)c1
85 | 249 to 251 °C | Cn1c(=O)n(-c2ccccc2)c(=O)c2c3c(sc21)CCCC3
86 | 280 °C | OC1C=C2CCN3Cc4cc5c(cc4C(C1O)C23)OCO5 (stereo not drawn)
87 | 100 °C | CC(C)(Oc1ccc(Cl)cc1)C(=O)NC(=O)NCN1CCOCC1
88 | 105 °C | COc1cc([C@@H](O)[C@H](CO)Oc2c(OC)cccc2OC)cc(OC)c1OC

Row | melting point | SMILES
89 | 201 °C | NC1=C(Cl)C(=O)c2ccccc2C1=O
90 | 248 to 249 °C | O=C(O)c1cn2nc(Cl)ccc2n1
91 | 124 to 125 °C | COc1ccccc1C1OC(=O)CC1C(=O)O (stereo not drawn)
92 | -73 °C | CCCCC#CCCCC
93 | 61.5 °C | CC(C)(C)OC(=O)N[C@H](COCc1ccccc1)C(=O)O
94 | 112 °C | CCOC(=O)c1c(N)sc2c1CCN(Cc1ccccc1)C2
95 | -73 °C | COC(CCl)OC
96 | 245 to 248 °C | Cc1nc(-c2ccc(S(=O)(=O)N3CCOCC3)cc2)c(-c2ccc(S(=O)(=O)N3CCOCC3)cc2)o1
97 | 82 to 83 °C | Cc1ccc(O)c2c1CCC2
98 | 105 °C | Cc1ccc(NC(=O)CC(C)c2ccc(C)cc2)cc1 (stereo not drawn)
99 | 63 °C | Cc1cc2ccccc2c(Br)c1C
100 | 71 °C | Fc1c(F)c(F)c(P(c2ccccc2)c2ccccc2)c(F)c1F
101 | 152 to 160 °C | OC1COC(O)C(O)C1O (stereo not drawn)
102 | 270 °C | O=C(c1cc(O)c(O)c(O)c1)c1ccc(O)c(O)c1O
103 | 125 to 126 °C | CCOC(=O)c1[nH]c(C)cc1C
104 | 20 to 28 °C | Cc1cc(C)c2c(c1C)CC2
105 | 151 to 153 °C | CC(=O)Nc1cc(C)ccc1O
106 | 191 to 192 °C | Cc1ccc(NC(=O)C(O)C(O)C(=O)O)cc1 (single isomer, unassigned; (-))
107 | 156 °C | COc1ccc(C=Cc2cc(OC)cc(=O)o2)cc1
108 | 82 °C | O=[N+]([O-])c1ccccc1Sc1ccccc1
109 | 7.7 °C | Cc1ccc(C)[nH]1

Row | SMILES | melting point
110 | O=C1CN=C(c2ccccc2F)c2cc(Cl)ccc2N1CC1CC1 | 118 °C
111 | CN(C)c1ccc(N)cc1 | 53 °C
112 | c1ccc2c(c1)CCc1ccccc1N2C1CN2CCC1CC2 (stereo not drawn) | 150 °C
113 | Cc1c(C(=O)O)nnn1Cc1ccccc1 | 170 to 171 °C
114 | O=NN1CCOCC1 | 29 °C
115 | COCC(=O)N(c1c(C)cccc1C)N1CCOC1=O | 104 °C
116 | COc1cc(F)c(F)cc1CBr | 42 °C
117 | CCSC(=O)Cl | -60 °C
118 | Cc1cccc(OP(=O)(Oc2cccc(C)c2)Oc2cccc(C)c2)c1 | 25.5 °C
119 | Clc1cc2c(cc1Cl)Oc1cc(Br)c(Br)cc1O2 | 316 °C
120 | CC(CO)NC(=O)C1C=C2c3cccc4[nH]cc(c34)CC2N(C)C1 (stereo not drawn) | 162 °C
121 | COc1ccc(F)cc1CBr | 60 °C
122 | COP(=O)(OC)OC | -46 °C
123 | c1ccc(C(c2ccccc2)c2ccccn2)cc1 | 54 to 61 °C
124 | CC(C)(C)C(O)C(Cc1ccc(Cl)cc1Cl)n1cncn1 (stereo not drawn) | 148 °C
125 | C=CCC1(C(C)CCC)C(=O)NC(=S)NC1=O (stereo not drawn) | 132 °C
126 | O=C=Nc1ccccc1 | -31.3 °C
127 | CC1CCCC=CC2CC(O)CC2C(O)C=CC(=O)O1 (stereo not drawn) | 201 to 205 °C
128 | COC(=O)c1ccccc1S(=O)(=O)NC(=O)Nc1nc(C)nc(OC)n1 | 162 °C
